Measurements from patent US9642922B2, “Caspase-triggered nano-aggregation probes and methods of use” (The Board of Trustees of the Leland Stanford Junior …, priority 2013, dated 2017).
Numbered stars: 1 amine (or outer) side, 2 acyl side, 3 side chain; on linkers, the order of the positions; unused ones are H or OH. Square brackets hold non-standard residues; d marks the D form. Peptide text beside a SMILES is read from it. * marks the point of attachment. DOTA = O=C(O)CN1CCN(CC(=O)O)CCN(CC(=O)*)CCN(CC(=O)O)CC1; X1 = O=C(C1CSC(c2nc3ccc(N[*:1])cc3s2)=N1)[*:2]; X2 = N#Cc1ccc2cc(OCCCN*)ccc2n1; SEt = CCS*

Legend:
[1] = molecular target: T1, legumain (Homo sapiens, UniProt Q99538); assay: HPLC enzyme specificity assay of C-SNAF, legumain; assay type: biochemical; conditions: 25 μM probe, 0.735 μg/ml enzyme, pH 5.5
T1 construct: purchased R&D Systems; host or cells: mouse myeloma cell line
Method: The specificity of C-SNAF towards other representative cysteine proteases such as caspase-7, caspase-9, cathepsin B, and legumain was examined.
Caspase (human, recombinant from E. coli) assays were performed for caspase-3 (4.9×10^−3 U; 7.35×10^−4 mg, Sigma), −7 (18.3 U; 7.35×10^−4 mg, Calbiochem), and −9 (0.3 U; 7.35×10^−4 mg, Calbiochem). All caspase assays were conducted in caspase buffer with 50 mM HEPES, 100 mM NaCl, 1 mM EDTA, 10 mM TCEP, 10% glycerol, and 0.1% CHAPS at pH 7.4. Cathepsin B (human liver; 0.27 U; 7.35×10^−4 mg, Calbiochem) and Legumain (human, recombinant from mouse myeloma cell line; >250 pmol/min/μg; 7.35×10^−4 mg, R&D Systems) were conducted in reaction buffer with 50 mM sodium acetate, 50 mM NaCl, 0.5 mM EDTA and 10 mM TCEP at pH 5.5. C-SNAF was diluted in the respective enzyme reaction buffer (25 μM, 1 mL) and remained at room temperature for 10 min, to which was then added the respective enzymes. Reactions were performed at 37° C., and monitored by HPLC hourly. The percentage conversion of the reaction was calculated based on the percentage of peak area of C-SNAF-cycl in the HPLC trace at 675 nm UV detection, which indicated the efficacy of enzyme cleavage of C-SNAF.

[2] = tested on: apoptotic HeLa cells; assay: Epifluorescence microscopy of apoptotic HeLa cells labeled with probes; assay type: cell-based, human
Method: After removal of the medium, the cells were incubated with C-SNAF, L-ctrl, or D-ctrl at 2 μM for 24 h. Some cells were first incubated with caspase inhibitor (Z-VAD-fmk, 50 μM) for 30 min, followed by incubating with 2 μM C-SNAF for 24 h. The cells were carefully washed with PBS (1×) three times, and stained with Hoechst 33342 (2 μM) at 37° C. for 30 min. After rinses with PBS (1×) several times, the medium was replaced and the fluorescence images were acquired with DAPI and Cy5.5 filters. The images were processed using the standard CRi Nuance software, analyzed using Image J software package (NIH), and presented at the same intensity scale for comparison.
HeLa cells in #1.5 borosilicate 8-well chambered coverslips (Nunc) were either incubated with C-SNAF (2 μM) alone or co-incubated with DOX (1, 2, and 5 μM) and 2 μM C-SNAF, 2 μM C-SNAF together with caspase inhibitor (Z-VAD-fmk, 50 μM), or control probes D-ctrl and L-ctrl at 2 μM for 24 h. Then the medium was removed, the cells were carefully washed with PBS (1×) three times, and stained with nuclear binding probe Hoechst 33342 (2 μM) at 37° C. for 30 min. After several rinses with PBS (1×), the medium was replaced and the fluorescence images were acquired with DAPI and […] filters.

[3] = Water proton r1 relaxivity measurement; assay type: physicochemical; conditions: 1 T
Method: Water proton r1 relaxivities of probe 15 and 1-ctrl (19) before and after caspase-3 incubation were then measured at 1, 1.5 and 3 T. For comparison, the isolated cyclized products 2-I and 2-II were also measured.
A series of solutions containing contrast agents with five different concentrations (0.05-0.5 mM) in Caspase buffer (pH 7.4) were treated with or without Casp-3 (50 nM) at 37° C. overnight. The solutions were placed in PCR tubes, bundled together, and MR-imaged at 1 T (Bruker Icon, Bruker BioSpin Corp.), […], 1.5 and 3 T (Signa HDx, GE Healthcare) at room temperature.
The scanning procedure began with a localizer and then consisted of a series of inversion-prepared fast spin echo scans, identical in all aspects (TR 8000 ms (6000 ms for Bruker Icon), TE minimum, field of view 6 cm, slice thickness 2 mm, matrix 128×128, NEX 1) except for the inversion time (TI) that was varied as: 4000, 2400, 1200, 800, 600, 400, 300, 200, 100, and 50 ms. For quantitative data analysis, the acquired MR images were transferred as DICOM images to an offline workstation, and signal intensities were extracted from each of the 5 samples at each of the 10 TI times by manual region of interest (ROI) placement and voxel averaging within the ROI.
Signal intensity versus TI relationships were fit to the following exponential T1 recovery model by non-linear least squares regression: SI (TI)=S0[1−2*exp(−TI/T1)+exp(−TR/T1)]. Relaxation rates (R1) were determined as 1/T1. Longitudinal relaxivities (r1, units of mM^−1s^−1) were calculated as the slope of R1 vs [Gd] after the determination of true Gd concentration of each sample by the ICP-MS measurement.

[4] = tested on: HeLa cell pellets; assay: MRI T1 of HeLa cell pellets at 1 T; assay type: cell-based, human; conditions: 250 μM, 24 h
Description: Thus, higher caspase-3 activity in apoptotic cells can trap probe 15 inside cells, resulting in higher MRI contrast for cell apoptosis imaging.

[5] = molecular target: T2, caspase-3 (Homo sapiens, UniProt P42574); assay: HPLC assay of caspase-3-triggered cyclization of MRI probe 15; assay type: biochemical; parameters: purchased Sigma; host or cells: E. coli; conditions: 200 μM probe, caspase-3 50 nM, 5 h
T2 sequence (P42574 29-175 limits assumed): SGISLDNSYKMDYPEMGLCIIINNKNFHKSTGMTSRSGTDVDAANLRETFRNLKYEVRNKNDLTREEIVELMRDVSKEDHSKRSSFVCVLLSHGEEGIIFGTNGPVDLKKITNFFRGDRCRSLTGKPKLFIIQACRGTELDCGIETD
T2 sequence (P42574 176-277 limits assumed): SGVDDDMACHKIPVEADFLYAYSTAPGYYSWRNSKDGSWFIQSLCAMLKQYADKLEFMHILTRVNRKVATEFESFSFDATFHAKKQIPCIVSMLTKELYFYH
Method: The progression of caspase-3-triggered intramolecular cyclization of probe 15 in solution was investigated by incubation (200 μM) with recombinant human caspase-3 (50 nM) using high-performance liquid chromatography (HPLC). […] More than 90% of probe 15 and its disulfide bond reduced intermediates could be converted after 5 h (FIG. 27B).

T1 sequence (Q99538 18-323): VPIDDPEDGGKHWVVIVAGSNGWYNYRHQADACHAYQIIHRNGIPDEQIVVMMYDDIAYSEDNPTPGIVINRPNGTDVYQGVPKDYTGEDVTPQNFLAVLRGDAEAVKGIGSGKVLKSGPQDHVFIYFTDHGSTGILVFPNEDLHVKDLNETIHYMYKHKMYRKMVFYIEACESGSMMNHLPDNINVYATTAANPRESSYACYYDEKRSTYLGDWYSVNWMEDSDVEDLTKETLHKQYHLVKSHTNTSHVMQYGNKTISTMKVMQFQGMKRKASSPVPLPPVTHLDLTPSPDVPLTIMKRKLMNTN

SMILES | activation by legumain [1] | cell labeling efficiency ([2]; DOX 1 μM) [%] | cell labeling efficiency ([2]; DOX 5 μM) [%] | enhancement in cell labeling efficiency ([2]; DOX 1 to 5 μM) | cell labeling efficiency ([2]; STS 0.5 μM) [%] | cell labeling efficiency ([2]; STS 2 μM) [%] | enhancement in cell labeling efficiency ([2]; STS 0.5 to 2 μM) | r1 after activation higher than Dotarem [3] | r1 after activation higher than before activation [3] | r1 relaxivity upon caspase-3 activation [3] | r1 relaxivity without caspase-3 activation [3] [mM⁻¹ s⁻¹] | r1 after activation higher than before activation ([3]; listed as Gd-based MRI probe) [%] | r1 relaxivity upon caspase-3 activation ([3]; listed as Gd-based MRI probe) [mM⁻¹ s⁻¹] | reduction of T1 value in STS-treated versus non-treated cell pellets [4] | probe and disulfide-reduced intermediates converted to cyclized products [5]
CCSSC[C@@H](NC(=O)[C@H](CC(=O)O)NC(=O)[C@@H](NC(=O)[C@H](CCC(=O)O)NC(=O)[C@H](CC(=O)O)NC(C)=O)C(C)C)C(=O)N[C@@H](CCCCNC(=O)CCCCCN1C(=CC=CC=CC2=[N+](CC)c3ccc4c(S(=O)(=O)[O-])cc(S(=O)(=O)O)cc4c3C2(C)C)C(C)(C)c2c1ccc1c(S(=O)(=O)O)cc(S(=O)(=O)O)cc21)C(=O)Nc1ccc2nc(C3=N[C@@H](C(=O)NCCCOc4ccc5nc(C#N)ccc5c4)CS3)sc2c1 [C-SNAF] | neither lysosomal cysteine proteases cathepsin B nor legumain could significantly activate | 9 | 92 | approximately 10 fold | 23 | 90 | approximately 4 fold | – | – | – | – | – | – | – | –
CCSSCC(NC(=O)C(CC(=O)O)NC(=O)C(NC(=O)C(CCC(=O)O)NC(=O)C(CC(=O)O)NC(C)=O)C(C)C)C(=O)NC(CCCCNC(=O)CN1CCN(CC(=O)[O-])CCN(CC(=O)[O-])CCN(CC(=O)[O-])CC1)C(=O)Nc1ccc2nc(C3=NC(C(=O)NCCCOc4ccc5nc(C#N)ccc5c4)CS3)sc2c1.[Gd+3] (stereo not drawn) [probe 15] (Ac-DEVDC(SEt)K(DOTA)[X1]-X2; configuration not given here) | – | – | – | – | – | – | – | about 510% | about 106% | approximately 29.3 mM^−1 s^−1 | 14.2 | 106 | 29.3 | about 3 fold | More than 90%
